Data published in patent publication US11576933B2, “Compositions and methods for an improved antitumor immune response” (EFFECTOR THERAPEUTICS, INC., priority 2017, dated 2023).

Key:
myofibroblasts [1] = experiment: TGFβ secretion from pre-formed myofibroblasts, Human TGF-B1 ELISA kit; type: cell-based; conditions: myofibroblasts pre-formed with 10 ng/ml TGFβ 24 hours, washed; inhibitor 0-100 nM for 48 hours; FIG. 3A
Protocol: (§1) Briefly, fibroblasts (Lonza #CC-2512; cell passage numbers 2 through 5 were used for all experiments) were seeded (Day 0) and cultured in Dulbecco's modified Eagle medium (DMEM) supplemented with 10% fetal bovine serum (FBS), penicillin, streptomycin and glutamax (Invitrogen) at 37° C. in a humidified incubator with 5% CO2 overnight. On Day 1, cells were washed with phosphate buffered saline (PBS), and then incubated for 72 hours in fresh serum-free DMEM supplemented with penicillin, streptomycin, and glutamax. On Day 4, cells were washed, followed by addition of fresh serum-free DMEM containing 10 ng/ml TGFβ, and cultured for 24 hours. On Day 5, cells were washed, followed by addition of fresh serum-free DMEM containing eIF4A inhibitor Cmp1 (0, 1.2, 3.7, 11.1, 33.3 or 100 nM), and cultured. Controls included untreated cells. At 48 hours post-addition of eIF4A inhibitor, 300 ul of culture media was harvested, centrifuged to pellet cellular debris, and frozen at −80° C. TGFβ1 in the culture medium was quantified using the Human TGF-B1 ELISA kit (R&D System DY240-05) according to the manufacturer's instructions. Procollagen type 1 C-Peptide (PIPC) levels were analyzed using the (PIP) EIA kit (Clontech, Cat. No. MK101) according to the manufacturer's instructions.

[2] = system: fibroblasts (Lonza #CC-2512); experiment: Procollagen type 1 C-Peptide (PIPC) secretion from fibroblasts co-treated with TGFβ, (PIP) EIA kit; type: cell-based; conditions: 24 hours co-incubation with 10 ng/ml TGFβ; inhibitor 0, 1.5, 4, 13 or 40 nM; FIGS. 2A and 2B
Protocol: (§2) Myofibroblasts are believed to be associated with tumor growth, vascularization, and metastasis (see, e.g., Webber et al., Cancer Res. 70:9621, 2010). The ability of Cmp1 or Cmp2 to inhibit the TGFβ-mediated fibroblast-to-myofibroblast transformation and components of the extracellular matrix was evaluated in fibroblasts.
(§3) Briefly, fibroblasts (Lonza #CC-2512; cell passage numbers 2 through 5 were used for all experiments) were seeded (Day 0) and cultured in Dulbecco's modified Eagle medium (DMEM) supplemented with 10% fetal bovine serum (FBS), penicillin, streptomycin and glutamax (Invitrogen) at 37° C. in a humidified incubator with 5% CO2 overnight. On Day 1, cells were washed with phosphate buffered saline (PBS), and then incubated for 48 hours in fresh serum-free DMEM supplemented with penicillin, streptomycin, and glutamax. […]
(§4) After a 24-hour incubation period, the effects of eIF4A inhibition on fibroblast transformation and production of extracellular matrix components were evaluated. Smooth muscle actin (α-SMA) protein levels were analyzed by western blot. Procollagen type 1 C-Peptide (PIPC) levels were analyzed by collecting culture media, centrifuging to pellet cellular debris, and quantifying using the (PIP) EIA kit (Clontech, Cat. No. MK101) according to the manufacturer's instructions.

myofibroblasts [3] = experiment: Procollagen type 1 C-Peptide (PIPC) secretion from pre-formed myofibroblasts, (PIP) EIA kit; type: cell-based; conditions: myofibroblasts pre-formed with 10 ng/ml TGFβ 24 hours, washed; inhibitor 0-100 nM for 48 hours; FIG. 3B
Protocol: as §1

[4] = system: fibroblasts (Lonza #CC-2512); experiment: α-SMA protein level by western blot in fibroblasts co-treated with TGFβ (fibroblast-to-myofibroblast transformation); type: cell-based; conditions: 24 hours co-incubation with 10 ng/ml TGFβ, inhibitor 0, 1.5, 4, 13 or 40 nM, FIG. 1
Protocol: as §2, §3, §4

[5] = system: KPC-3 (mouse pancreatic carcinoma) tumor; experiment: Tumor infiltrating lymphocytes (CD3+/CD8+ IHC) in allograft KPC-3 tumor model; type: in vivo; conditions: parenterally, C57BL/6J mice, versus vehicle; for CD3+ T cells in the KPC-3 tumor samples: FIG. 4B
Protocol: To evaluate the effect of an eIF4A inhibitor on tumor infiltrating lymphocytes, an allograft tumor model was used. Briefly, KPC-3 (mouse pancreatic carcinoma) cells grown in DMEM supplemented with 10% FBS were harvested during exponential growth and counted for tumor inoculation in immune competent C57BL/6J mice. Each mouse was inoculated subcutaneously with 0.1×10^6 KPC-3 tumor cells in the right flank region in 0.1 mL volume comprising a 1:1 ratio (volume to volume) of cells in growth media and Matrigel® matrix (BD Biosciences, San Jose Calif.). Tumors were grown to 100-200 mm^3 prior to study initiation. Before beginning treatment, all animals were weighed and tumor volumes measured using a caliper. Since the tumor volume can affect the effectiveness of any given treatment, mice were randomly assigned into vehicle and test article treatment groups after tumors had reached a similar size. Each study group contained 8 mice, with each group receiving either vehicle (D5W) or Cmp1 administered parenterally on two dosing schedules (0.33 mg/kg Q2D and 1 mg/kg Q1W for 17 days). Following treatment, tumor biopsies were collected for four representative animals from each treatment group, formalin-fixed, and paraffin-embedded. Tumor samples were sectioned and stained with anti-CD3 and anti-CD8 antibodies or isotype control. A hematoxylin nuclear counterstain was also applied. Image analysis and quantification were conducted using ImageDx™. Increased CD3^+ and CD8^+ T cell staining within the tumor sample for eIF4A inhibitor treatment relative to vehicle indicates an increase in infiltrating lymphocytes into the tumor.

| SMILES | levels of secreted TGFβ (myofibroblasts [1]) | procollagen type I secretion (PIPC) [2] | procollagen type I levels (myofibroblasts [3]) | α-SMA protein level (ratio of α-SMA to β-actin) [4] | CD3+ T cells in the KPC-3 tumor samples ([5]; 0.3 mg/kg Q2D for 17 days) | CD3+ T cells in the KPC-3 tumor samples ([5]; 1 mg/kg Q1W for 17 days) | CD8+ T cells in the KPC-3 tumor samples ([5]; 1 mg/kg Q1W for 17 days, FIG. 4C) |
| --- | --- | --- | --- | --- | --- | --- | --- |
| COc1cc2c(c(OC)n1)[C@]1(O)[C@H](O)[C@H](CN(C)C)[C@@H](c3ccccc3)[C@]1(c1ccc(C#N)cc1)O2 (racemic) [Cmp1] | reduced the levels of secreted TGFβ in a dose-dependent manner | blocked the increase | dose-dependent decrease | dose-dependent reduction | significant increase | significant increase | significant increase |
| COc1nc(Cl)cc2c1[C@]1(O)[C@H](O)[C@H](CN(C)C)[C@@H](c3ccccc3)[C@]1(c1ccc(C#N)cc1)O2 [Cmp2, 4-((5aR,6S,7S,8R,8aS)-3-chloro-7-((dimethylamino)methyl)-8,8a-dihydroxy-1-methoxy-6-phenyl-6,7,8,8a-tetrahydro-5aH-cyclopenta[4,5]furo[3,2-c]pyridin-5a-yl)benzonitrile] | – | blocked the increase | – | dose-dependent reduction | – | – | – |
